Source: patent publication US20210047278A1, “E3 UBIQUITIN LIGASE AGONISTS, PHARMACEUTICAL COMPOSITIONS INCLUDING THE E3 UBIQUITIN LIGASE AGONISTS, RELATED METHODS OF USE” (FRED HUTCHINSON CANCER RESEARCH CENTER, priority 2018, published 2021)
Where two headings read alike, the source gives them in different places.

Key:
Format in all cases: binding
FBW7^ARG+pCycE = target: T1, FBW7^ARG+pCycE (Homo sapiens, UniProt Q969H0, R505L); assay: FBW7^ARG-cyclin E agonist ALPHAscreen (primary PRUN, confirmation CRUN1, dose-response DRUN); details: for EC50 / Emax: DRUN dose-response; for Emax: relative to WT-FBW7+pCycE, read-out: FBW7 ACT Averaged Max % Response
T1 construct: GST (TEV site and flexible linker) (N, cleaved yes); made in house; host or cells: SF9 insect cells (baculovirus)
Source text: FBW7^ARG refers to a class of loss-of-function mutations of the of FBW7 ubiquitin ligase that target a key phosphate-binding arginine residue in the FBW7 substrate-binding domain. These mutations are commonly found in human cancers and promote tumorigenesis by impairing the interactions between FBW7 and its substrates, such as cyclin E and Myc. Described herein is a high throughput screen (HTS) to identify agonists, such as small molecules, that augment FBW7^ARG-substrate binding. In an embodiment, the HTS is based on the Amplified Luminescent Proximity Homogenous Assay (ALPHAscreen) because it detects protein-protein interactions with a large dynamic range. ALPHAscreen is a bead-based proximity assay wherein donor beads contain a photosensitizer, phthalocyanine, and acceptor beads contain thioxene, anthracene and rubrenein in sufficient quantities to generate a chemiluminescence/fluorescence reaction (FIG. 4A). Upon excitation with excitation illumination, such as light having a wavelength of 680 nm, of the donor beads, phthalocyanine converts ambient oxygen to singlet oxygen, which can diffuse approximately 200 nm within its 4-microsecond half-life. If an acceptor bead is in close proximity to an excited donor bead, singlet oxygen transfers its energy to the acceptor, resulting in emitted light at a broad bandwidth of −520-620 nm. The HTS-compatible FBW7/cyclin E ALPHAscreen assay described herein uses streptavidin coupled donor beads and Ni-chelate acceptor beads. In this assay, biotinylated cyclin E phosphopeptide and the His-tagged FBW7 mutant protein have high affinity for the donor and acceptor beads, respectively (FIG. 4B). A small molecule that is able to bridge the binding sites of the peptide and the mutant protein (or induce a conformational change that increases affinity of the protein for the peptide) will bring the donor and acceptor beads in close proximity to each other, resulting in an ALPHA signal. As designed, this assay format is a very sensitive, non-radioactive, homogenous “mix-and-read” format that is HT compatible in 384 and 1536 well formats.
In the 384-well screening assay, 10 uL of acceptor beads with 25 nM of the FBW7^ARG (RLFBW7) are dispensed to test wells; acceptor beads with 25 nM of the wt-FBW7 protein (WTFBW7) are dispensed to control wells. Test compounds are then added by pintool transfer and the mixture is incubated for 30 minutes. An additional 10 uL of donor beads with 25 nM cyclin E phosphopeptide is then added to all wells and the plate is incubated for 4 hours before the ALPHA signal is measured.
In preparation for large-scale screening, the assay was miniaturized to a 1536-well format. The miniaturized screen performed outstandingly in all respects. The screen was enhanced with respect to several parameters and assayed its performance using mutant FBW7 and wt-FBW7, as well as non-specific assay agonists. […] For example, the following Z′-scores/FBW7 concentrations were obtained: 6.25 nM/Z′=0.62, 12.5 nm/Z′=0.85, 25.0 nM/Z′=0.84.
1. Add 2.5 uL of RLFBW7/cycE˜P/Ni beads: Final [25 nM/25 nM/10 ug/ml].
2. Add 2.5 uL of WTFBW7/cycE˜P/Ni beads: Final [25 nM/25 nM/10 ug/ml].
4. Add 2.5 uL of SA beads to all wells Final [10 ug/ml],
5. Add 30 nL of compounds,
6. Read ALPHAscreen on Envision
The large-scale FBW7 agonist ALPHAscreen was completed using FBW7^ARG and a phosphorylated cyclin E (pCycE) degron peptide. Wt-FBW7+pCycE-peptide was the “high control”, and Wt-FBW7+unphosph. CycE peptide was the “low control”. The screen was performed on the 645,000-compound Scripps Diversity Library using 1536-well format and drug concentrations of 26.1 μM. An algorithm aided hit identification based on the average percent activation for all compounds and their standard deviation.
A confirmation assay of all 853 compounds in triplicate using a single concentration (26.1 μM). […]

pCycE alone = assay: Counterscreen 2 ALPHAscreen with cyclin E phosphopeptide alone (CSRUN2/DCSRUN2); details: for CyCEP ACT DCSRUN2 Averaged Max % Response: activation relative to WT-FBW7+pCycE, averaged maximum; for EC50: dose-response, triplicate, 10 point 3-fold dilutional series, read-out: CyCEP ACT DCSRUN2 Final EC50
Protocol: (§1) Studies in 384-well format were performed using the ENVISION system. Reagent concentrations (see FIG. 6A), order of addition, pH (see FIG. 6B), and reducing agent were altered with the goal of enhancing the dynamic range between wt-FBW7 (the positive control) and FBW7^ARG (FIG. 6 and not shown). Wt-FBW7 produced a signal 100× greater with phosphorylated cyclin E degron peptide compared with unphosphorylated, which represents the assay's maximum range (FIG. 6C). […] This assay thus detects the residual affinity of the FBW7^ARG-substrate interaction, which, as predicted, is stronger than wt-FBW7 protein with unphosphorylated cyclin E peptide. Concurrent with this primary assay, counter ALPHAscreens were developed which omitted either FBW7 or peptide (to eliminate hits that are general ALPHAscreen agonists), or used an irrelevant phosphopeptide (to eliminate compounds that simply augment binding to phosphopeptides). […]
(§2) The 77 hits were subjected to a dose-response assay in which each compound was tested in triplicate in a 10 point 3-fold dilutional series, to a maximum concentration of approximately 87 μM. Three screens were performed, using FBW7^ARG+pCycE (DRUN), FBW7^ARG (DCSRUN1), or pCycE alone (DCSRUN2). See TABLES 2, 3, and 4, respectively, and FIG. 10A. All of the assays performed extremely well, and threshold of 10% activation (relative to WT-FBW7+pCycE) was set as positive. […] Many hits fell into shared structure cluster ID groups, reinforcing the idea that they function as specific agonists (see below and TABLE 5).

FBW7^ARG (RLFBW7) alone = target: T2, FBW7^ARG (RLFBW7) alone (Homo sapiens, UniProt Q969H0, R505L); assay: Counterscreen 1 ALPHAscreen with FBW7^ARG alone (CSRUN1/DCSRUN1); details: dose-response counterscreen; for Emax: read-out: RLFBW7 ACT DCSRUN1 Averaged Max % Response
T2 construct: GST (TEV site and flexible linker) (N, cleaved yes); made in house; host or cells: SF9 insect cells (baculovirus)
Protocol: as §1, §2

[1] = raw curve fit, read-out: FBW7 ACT EC50 Curve Fit Raw, Molar
[2] = triplicate, 10 point 3-fold dilution, max approx. 87 μM, read-out: FBW7 ACT Final EC50, Molar
[3] = confirmation assay, triplicate, single concentration 26.1 μM, read-out: FBW7 ACT CRUN1 Avg % Response and Stdev
[4] = primary screen, 1536-well, 26.1 μM, FBW7^ARG + pCycE degron peptide, high control wt-FBW7+pCycE, read-out: FBW7 ACT PRUN % Response
[5] = raw curve fit, read-out: RLFBW7 ACT DCSRUN1 EC50 Curve Fit Raw
[6] = read-out: RLFBW7 ACT DCSRUN1 Final EC50

T1 sequence (Q969H0 64-707 R505L): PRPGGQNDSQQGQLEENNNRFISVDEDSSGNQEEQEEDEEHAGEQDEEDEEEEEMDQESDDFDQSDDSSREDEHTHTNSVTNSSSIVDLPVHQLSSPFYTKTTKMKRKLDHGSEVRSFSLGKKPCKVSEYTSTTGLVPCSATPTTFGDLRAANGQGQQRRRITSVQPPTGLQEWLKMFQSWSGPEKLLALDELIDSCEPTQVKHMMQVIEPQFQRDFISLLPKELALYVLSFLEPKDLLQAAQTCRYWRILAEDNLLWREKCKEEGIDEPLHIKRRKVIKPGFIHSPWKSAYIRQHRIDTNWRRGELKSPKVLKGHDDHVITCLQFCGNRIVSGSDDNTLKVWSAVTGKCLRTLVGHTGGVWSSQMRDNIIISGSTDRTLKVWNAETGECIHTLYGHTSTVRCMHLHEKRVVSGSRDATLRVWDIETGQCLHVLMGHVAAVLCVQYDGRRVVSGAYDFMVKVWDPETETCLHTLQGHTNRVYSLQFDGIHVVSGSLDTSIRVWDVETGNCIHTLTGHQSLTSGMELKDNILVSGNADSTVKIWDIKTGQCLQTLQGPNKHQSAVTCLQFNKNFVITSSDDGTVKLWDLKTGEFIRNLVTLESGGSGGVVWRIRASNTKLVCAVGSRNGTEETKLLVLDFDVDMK
T1 sequence (P63208 2-163 partner): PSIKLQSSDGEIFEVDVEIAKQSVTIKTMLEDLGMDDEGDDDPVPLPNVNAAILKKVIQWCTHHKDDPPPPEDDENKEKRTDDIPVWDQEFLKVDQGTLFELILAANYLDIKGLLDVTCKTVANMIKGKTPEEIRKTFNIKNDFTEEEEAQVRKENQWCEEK
T2 sequence (Q969H0 64-707 R505L): as the sequence (Q969H0 64-707 R505L) above
T2 sequence (P63208 2-163 partner): as the sequence (P63208 2-163 partner) above

Row | EC50 (FBW7^ARG+pCycE; [1]) | Emax (FBW7^ARG+pCycE) | EC50 (FBW7^ARG+pCycE; [2]) | activation at 26.1 µM (FBW7^ARG+pCycE; [3]) | activation at 26.1 µM (FBW7^ARG+pCycE; [4]) | EC50 (FBW7^ARG (RLFBW7) alone; [5]) | Emax (FBW7^ARG (RLFBW7) alone) | EC50 (FBW7^ARG (RLFBW7) alone; [6]) | SMILES | CyCEP ACT DCSRUN2 Averaged Max % Response (pCycE alone) | EC50 (pCycE alone)
1 | 30.2 µM | 24.7% | > 65.3 µM | 4.65 ± 0.38% | 2.32% | 0.0129 µM | 0.43% | > 65.3 µM | O=C(Cc1ccc(Br)cc1)N1CCC(c2nc(O)c3cnccc3n2)C1.O=C(O)C(F)(F)F (stereo not shown) [SR-00000005455-1] | 0.31% | > 65.3 µM
2 | 7.2 µM | 15.4% | > 16.3 µM | 7.7 ± 0.45% | 2.73% | 2.2 µM | 0.27% | > 16.3 µM | CN(C)CCN(C)c1nc([C@H](N)Cc2cccc(F)c2)cc2ccc(-c3cn[nH]c3)cc12.O=C(O)C(F)(F)F [SR-00000006284-1] | 0.41% | > 16.3 µM
3 | 2.6 µM | 12.1% | > 65.3 µM | 4.15 ± 0.5% | 2.76% | 83.6 µM | 2.08% | > 65.3 µM | Cc1ncn(-c2ccc(Nc3cc(-c4nocc4-c4ccccn4)ccn3)cc2)n1.O=C(O)C(F)(F)F [SR-00000006872-1] | 0.34% | > 65.3 µM
4 | 7.5 µM | 23.6% | > 65.3 µM | 2.88 ± 0.43% | 4.34% | 1.7 µM | -0.141% | > 65.3 µM | Cc1cccc(CC(=O)Nc2cnn(-c3cccc(C(=O)N4CCNC(=O)CC4)c3)c2)c1 [SR-01000188911-1] |  | 
5 | 0.0482 µM | 6.46% | > 65.3 µM | 3.43 ± 0.23% | 2.08% |  | 0.25% | > 65.3 µM | Cc1ccnc(N2CCC(C(=O)Nc3ccccc3Br)CC2)n1 [SR-01000330228-1] |  | 
6 | 8.6 µM | 17.3% | > 67.2 µM | 18.3 ± 0.97% | 2.55% | 2.8 µM | 0.3% | > 67.2 µM | CCCOC(=O)C1=C(C)N(CC)C(=O)NC1c1ccccc1[N+](=O)[O-] (stereo not shown) [SR-01000417871-1] |  | 
7 | 7.1 µM | 16.5% | > 40.4 µM | 7.38 ± 0.72% | 4.51% | 0.0053 µM | 2.4% | > 40.4 µM | CCc1ccc(N2CC(C(=O)NCC(C)(C)CNC(=O)C3CC(=O)N(c4ccc(CC)cc4)C3)CC2=O)cc1 (stereo not shown) [SR-01000537224-1] |  | 
8 | 9.2 µM | 16% | > 49.8 µM | 3.13 ± 0.23% | 2.1% |  | 1.58% | > 49.8 µM | COc1cc2c(cc1OC)C(COc1ccc([N+](=O)[O-])cc1)N(C(=O)c1ccc3c(c1)OCO3)CC2 (stereo not shown) [SR-01000568734-1] |  | 

The next lines start with the molecule.

Row | SMILES | EC50 (FBW7^ARG+pCycE; [1]) | Emax (FBW7^ARG+pCycE) | EC50 (FBW7^ARG+pCycE; [2]) | activation at 26.1 µM (FBW7^ARG+pCycE; [3]) | activation at 26.1 µM (FBW7^ARG+pCycE; [4]) | EC50 (FBW7^ARG (RLFBW7) alone; [5]) | Emax (FBW7^ARG (RLFBW7) alone) | EC50 (FBW7^ARG (RLFBW7) alone; [6]) | CyCEP ACT DCSRUN2 Averaged Max % Response (pCycE alone) | EC50 (pCycE alone)
9 | COc1cc(-c2ccnc(N)n2)ccc1NC(=O)[C@H]1COc2ccccc2O1.O=C(O)C(F)(F)F [SR-00000003239-1] | 18.6 µM | 19.3% | > 65.3 µM | 2.52 ± 0.29% | 2.52% | 12.8 µM | 0.69% | > 65.3 µM | 0.15% | > 65.3 µM
10 | NC(c1nc2cc(-c3ccncc3)cnc2[nH]1)c1ccc(F)cc1F.O=C(O)C(F)(F)F (stereo not shown) [SR-00000003416-1] | 8.8 µM | 16.4% | > 65.3 µM | 3.91 ± 0.47% | 3.51% | 4 µM | 0.2% | > 65.3 µM | 0.29% | > 65.3 µM
11 | CN(C)CC[S+]([O-])c1cc(-c2cn[nH]c2)ccc1NC(=O)[C@@H]1Cc2cc(F)ccc2CN1.O=C(O)C(F)(F)F (stereo partly shown) [SR-00000005398-1] | 9.2 µM | 12.9% | > 65.3 µM | 2.28 ± 0.37% | 1.91% | 0.0925 µM | 0.77% | > 65.3 µM | 0.21% | > 65.3 µM
12 | O=C(NCc1ccc(C(=O)NCCc2ccccn2)cc1)Nc1ccc(-c2cn[nH]c2)cc1 [SR-00000005517-1] | 31.5 µM | 20% | > 65.3 µM | 4.71 ± 0.2% | 1.94% | 28.3 µM | 100% | 28.2 µM |  | 
13 | O=C([C@H]1CC[C@H](Nc2nccc(-c3ccc4nc(C5CC5)nc(O)c4c3)n2)CC1)N1CCCC1 [SR-00000008677-1] |  | 35.9% | > 65.3 µM | 4.42 ± 0.03% | 2.63% | 0.0572 µM | 0.06% | > 65.3 µM |  | 
14 | COc1ccccc1N1C(=O)c2ccc(C(=O)Nc3cc([N+](=O)[O-])ccc3O)cc2C1=O [SR-01000236956-1] | 22.1 µM | 10.6% | > 65.3 µM | 3.72 ± 0.2% | 2.14% | 21.2 µM | 2.25% | > 65.3 µM |  | 
15 | O=C(Nc1ccc2oc(-c3ccc4ccccc4c3)nc2c1)c1cccc(Cl)c1Cl [SR-01000415504-1] | 0.0458 µM | 7.3% | > 56.6 µM | 10.7 ± 0.62% | 1.88% | 0.136 µM | -0.031% | > 56.6 µM |  | 
16 | COc1ccc(NC(=O)c2cc(S(=O)(=O)N3CCN(c4ccccn4)CC3)ccc2F)cc1 [SR-01000579121-1] | 0.0032 µM | 11.6% | > 54.6 µM | 2.82 ± 0.29% | 1.87% |  | 1.99% | > 54.6 µM |  | 
